Data taken from PMC6576746, “Rational discovery of dual-indication multi-target PDE/Kinase inhibitor for precision anti-cancer therapy using structural systems pharmacology” (PLoS Computational Biology, 2019).

How the values were obtained:
Assay in all cases: biochemical
Parameters in all cases: DiscoverX KinomeScan competition binding assay across human kinases; per cent of control at 10 and 100 uM
ADCK4 = target: T1, ADCK4 (Homo sapiens, UniProt Q96D53); settings: competition binding, % of control; read-out: Percent Control (100 uM Levosimendan)
T1 construct: gene COQ8B
T1 sequence (Q96D53 whole entry): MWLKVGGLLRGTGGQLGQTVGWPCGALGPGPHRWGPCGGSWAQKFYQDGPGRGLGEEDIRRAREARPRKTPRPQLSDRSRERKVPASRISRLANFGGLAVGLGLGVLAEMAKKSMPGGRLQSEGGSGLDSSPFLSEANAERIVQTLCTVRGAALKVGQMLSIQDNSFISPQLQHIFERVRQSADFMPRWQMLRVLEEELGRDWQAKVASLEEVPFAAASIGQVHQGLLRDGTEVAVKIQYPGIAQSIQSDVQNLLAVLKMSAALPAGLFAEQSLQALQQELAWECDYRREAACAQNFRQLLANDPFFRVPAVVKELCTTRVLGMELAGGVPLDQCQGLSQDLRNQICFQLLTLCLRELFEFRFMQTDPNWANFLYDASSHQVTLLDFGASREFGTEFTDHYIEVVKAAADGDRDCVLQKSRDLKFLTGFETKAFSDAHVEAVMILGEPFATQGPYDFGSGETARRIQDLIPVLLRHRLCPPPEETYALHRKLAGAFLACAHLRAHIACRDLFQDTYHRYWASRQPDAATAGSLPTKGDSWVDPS
Method: (§1) To validate our computational predictions, we employed a competition binding assay to detect the binding of levosimendan to 425 human kinases as well as its dose-response curve to RIOK1. The proprietary KinomeScan assay was performed by DiscoverX (Fremont, California, USA). The tests were performed at 10 μM and 100 μM concentrations of levosimendan, respectively. Assay results were reported as %control, calculated as follows: %control=(TestCompoundSignal−PositiveControlSignal)/(NegativeControlSignal−PositiveControlSignal)×100 KinomeScan assay across 452 human kinases verified our computational prediction (S1 Table). RIOK1 is one of the strongest inhibited kinases by levosimendan. The percentage control of RIOK1 is 15.0 and 0.0 under the treatment of 10 μM and 100 μM of levosimendan, respectively. […] The percentage controls of five kinases: FLT3, MAP2K5, PIP5K1A, GAK, and KIT are less than 30.0 under the treatment of both 10 μM and 100 μM of levosimendan. Both FLT3 and KIT are tyrosine protein kinases. Their inhibitors have recently been approved for the treatment of Acute Myeloid Leukemia and other types of cancers, but a combination therapy is needed to overcome rapidly emerged drug resistance, thus improve patients’ drug responses. Other kinases inhibited by levosimendan belong to serine/threonine protein kinase family (RIOK1, RIOK3, GAK, and MAP2K5) and lipid kinase family (PIP5K1A). […] As a result, levosimendan may modulate different cancer pathways from those by the tyrosine protein kinase inhibitors, and it could be a novel lead compound for a new anti-cancer therapy to overcome drug resistance of existing drugs or to target different types of cancers through polypharmacology or drug combination.

AMPK-alpha1 = target: T2, AMPK-alpha1 (Homo sapiens, UniProt Q13131); settings: competition binding, % of control; read-out: Percent Control (100 uM Levosimendan)
T2 construct: gene PRKAA1
Method: as §1

CDK4-cyclinD1 = target: T3, CDK4-cyclinD1 (Homo sapiens, UniProt P11802); settings: competition binding, % of control; read-out: Percent Control (100 uM Levosimendan)
T3 construct: cyclinD1
Method: as §1

CDK5 = CDK5 (Homo sapiens, UniProt Q00535); settings: competition binding, % of control; read-out: Percent Control (100 uM Levosimendan)
Method: as §1

DMPK2 = target: T4, DMPK2 (Homo sapiens, UniProt Q6DT37); settings: competition binding, % of control; read-out: Percent Control (100 uM Levosimendan)
T4 construct: gene CDC42BPG
Method: as §1

[1] = target: EGFR(L747-S752del, P753S) (Homo sapiens, UniProt P00533, DEL747-752/P753S); settings: competition binding, % of control; read-out: Percent Control (100 uM Levosimendan)
Method: as §1

EGFR(S752-I759del) = EGFR(S752-I759del) (Homo sapiens, UniProt P00533, DEL752-759); settings: competition binding, % of control; read-out: Percent Control (100 uM Levosimendan)
Method: as §1

GRK7 = GRK7 (Homo sapiens, UniProt Q8WTQ7); settings: competition binding, % of control; read-out: Percent Control (100 uM Levosimendan)
Method: as §1

IGF1R = IGF1R (Homo sapiens, UniProt P08069); settings: competition binding, % of control; read-out: Percent Control (100 uM Levosimendan)
Method: as §1

[2] = target: T5, JAK2(JH1domain-catalytic) (Homo sapiens, UniProt O60674); settings: competition binding, % of control
T5 construct: JH1domain-catalytic
T5 sequence (O60674 whole entry): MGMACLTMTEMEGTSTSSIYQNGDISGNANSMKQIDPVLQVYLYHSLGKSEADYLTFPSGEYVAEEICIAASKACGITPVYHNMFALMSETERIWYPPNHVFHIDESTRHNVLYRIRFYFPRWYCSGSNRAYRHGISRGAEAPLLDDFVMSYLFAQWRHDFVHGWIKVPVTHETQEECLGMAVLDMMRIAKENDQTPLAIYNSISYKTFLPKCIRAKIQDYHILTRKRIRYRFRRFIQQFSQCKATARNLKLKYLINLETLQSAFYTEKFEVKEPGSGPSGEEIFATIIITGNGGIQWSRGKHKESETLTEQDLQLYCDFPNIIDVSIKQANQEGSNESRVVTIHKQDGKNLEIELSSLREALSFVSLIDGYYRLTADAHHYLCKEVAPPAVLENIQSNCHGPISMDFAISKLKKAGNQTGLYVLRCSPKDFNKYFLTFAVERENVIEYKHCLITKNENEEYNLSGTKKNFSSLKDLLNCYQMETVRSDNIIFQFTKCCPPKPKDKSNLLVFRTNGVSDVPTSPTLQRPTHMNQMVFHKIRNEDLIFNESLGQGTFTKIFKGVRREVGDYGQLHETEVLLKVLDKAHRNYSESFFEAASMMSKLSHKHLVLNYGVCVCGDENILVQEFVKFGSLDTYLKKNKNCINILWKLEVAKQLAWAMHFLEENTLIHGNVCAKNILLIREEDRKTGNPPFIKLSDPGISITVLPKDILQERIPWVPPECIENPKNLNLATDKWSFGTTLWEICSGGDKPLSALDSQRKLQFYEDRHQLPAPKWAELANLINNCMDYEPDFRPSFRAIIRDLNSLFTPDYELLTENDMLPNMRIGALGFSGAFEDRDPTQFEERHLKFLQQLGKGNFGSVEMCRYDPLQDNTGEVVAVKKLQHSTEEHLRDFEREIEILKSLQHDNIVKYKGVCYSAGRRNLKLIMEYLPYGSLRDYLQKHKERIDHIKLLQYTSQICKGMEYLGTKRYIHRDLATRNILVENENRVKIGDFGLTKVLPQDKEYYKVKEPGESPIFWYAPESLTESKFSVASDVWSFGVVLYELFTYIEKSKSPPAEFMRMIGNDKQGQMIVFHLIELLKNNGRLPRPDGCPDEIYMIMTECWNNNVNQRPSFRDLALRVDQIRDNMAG
Method: as §1

LIMK2 = LIMK2 (Homo sapiens, UniProt P53671); settings: competition binding, % of control; read-out: Percent Control (100 uM Levosimendan)
LIMK2, sequence (P53671 whole entry): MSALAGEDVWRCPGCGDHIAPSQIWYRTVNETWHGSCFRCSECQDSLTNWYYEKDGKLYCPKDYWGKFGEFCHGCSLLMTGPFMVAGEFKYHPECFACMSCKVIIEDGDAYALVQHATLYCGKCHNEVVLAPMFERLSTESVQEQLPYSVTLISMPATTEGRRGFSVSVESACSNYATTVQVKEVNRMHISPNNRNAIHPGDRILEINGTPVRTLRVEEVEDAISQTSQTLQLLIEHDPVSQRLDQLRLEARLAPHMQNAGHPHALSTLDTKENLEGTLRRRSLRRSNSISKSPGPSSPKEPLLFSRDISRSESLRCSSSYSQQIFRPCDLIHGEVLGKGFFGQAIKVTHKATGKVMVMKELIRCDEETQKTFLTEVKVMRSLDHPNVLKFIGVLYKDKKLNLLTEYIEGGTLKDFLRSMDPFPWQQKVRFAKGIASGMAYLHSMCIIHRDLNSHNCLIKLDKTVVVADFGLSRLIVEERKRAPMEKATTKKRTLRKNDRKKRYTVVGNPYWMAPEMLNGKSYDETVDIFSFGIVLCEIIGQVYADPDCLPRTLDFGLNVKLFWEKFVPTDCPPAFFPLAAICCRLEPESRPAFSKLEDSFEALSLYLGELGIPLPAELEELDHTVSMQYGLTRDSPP
Method: as §1

NEK1 = NEK1 (Homo sapiens, UniProt Q96PY6); settings: competition binding, % of control; read-out: Percent Control (100 uM Levosimendan)
Method: as §1

NEK7 = NEK7 (Homo sapiens, UniProt Q8TDX7); settings: competition binding, % of control; read-out: Percent Control (100 uM Levosimendan)
Method: as §1

PAK6 = PAK6 (Homo sapiens, UniProt Q9NQU5); settings: competition binding, % of control; read-out: Percent Control (100 uM Levosimendan)
Method: as §1

PIK3CD = PIK3CD (Homo sapiens, UniProt O00329); settings: competition binding, % of control; read-out: Percent Control (100 uM Levosimendan)
PIK3CD, sequence (O00329 whole entry): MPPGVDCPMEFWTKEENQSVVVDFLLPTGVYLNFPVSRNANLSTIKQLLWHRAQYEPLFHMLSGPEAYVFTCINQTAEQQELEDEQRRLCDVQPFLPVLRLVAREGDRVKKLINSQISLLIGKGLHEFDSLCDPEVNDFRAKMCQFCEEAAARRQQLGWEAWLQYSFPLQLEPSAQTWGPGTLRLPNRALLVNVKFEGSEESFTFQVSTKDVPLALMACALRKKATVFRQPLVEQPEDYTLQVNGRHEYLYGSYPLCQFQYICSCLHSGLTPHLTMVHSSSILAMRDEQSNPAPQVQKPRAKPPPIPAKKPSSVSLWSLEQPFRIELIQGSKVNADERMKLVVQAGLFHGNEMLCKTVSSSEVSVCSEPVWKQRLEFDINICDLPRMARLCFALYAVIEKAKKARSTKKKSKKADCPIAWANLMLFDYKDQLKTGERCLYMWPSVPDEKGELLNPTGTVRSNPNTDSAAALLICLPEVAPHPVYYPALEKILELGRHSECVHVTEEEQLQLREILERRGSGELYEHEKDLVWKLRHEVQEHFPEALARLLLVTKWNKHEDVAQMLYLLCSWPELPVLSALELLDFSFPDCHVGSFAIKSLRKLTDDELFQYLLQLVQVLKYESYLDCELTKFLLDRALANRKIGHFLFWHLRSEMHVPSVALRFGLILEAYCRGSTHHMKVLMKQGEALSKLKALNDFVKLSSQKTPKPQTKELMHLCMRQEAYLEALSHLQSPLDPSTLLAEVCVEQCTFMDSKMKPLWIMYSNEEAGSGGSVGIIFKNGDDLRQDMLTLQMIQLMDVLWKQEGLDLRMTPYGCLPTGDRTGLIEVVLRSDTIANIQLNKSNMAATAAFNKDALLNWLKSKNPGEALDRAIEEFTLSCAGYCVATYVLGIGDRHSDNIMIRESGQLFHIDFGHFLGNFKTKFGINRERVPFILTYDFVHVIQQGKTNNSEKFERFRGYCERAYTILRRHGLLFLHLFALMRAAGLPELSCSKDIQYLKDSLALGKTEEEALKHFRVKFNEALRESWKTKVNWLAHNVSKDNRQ
Method: as §1

PKAC-beta = target: T6, PKAC-beta (Homo sapiens, UniProt P22694); settings: competition binding, % of control; read-out: Percent Control (100 uM Levosimendan)
T6 construct: gene PRKACB
Method: as §1

TESK1 = TESK1 (Homo sapiens, UniProt Q15569); settings: competition binding, % of control; read-out: Percent Control (100 uM Levosimendan)
TESK1, sequence (Q15569 whole entry): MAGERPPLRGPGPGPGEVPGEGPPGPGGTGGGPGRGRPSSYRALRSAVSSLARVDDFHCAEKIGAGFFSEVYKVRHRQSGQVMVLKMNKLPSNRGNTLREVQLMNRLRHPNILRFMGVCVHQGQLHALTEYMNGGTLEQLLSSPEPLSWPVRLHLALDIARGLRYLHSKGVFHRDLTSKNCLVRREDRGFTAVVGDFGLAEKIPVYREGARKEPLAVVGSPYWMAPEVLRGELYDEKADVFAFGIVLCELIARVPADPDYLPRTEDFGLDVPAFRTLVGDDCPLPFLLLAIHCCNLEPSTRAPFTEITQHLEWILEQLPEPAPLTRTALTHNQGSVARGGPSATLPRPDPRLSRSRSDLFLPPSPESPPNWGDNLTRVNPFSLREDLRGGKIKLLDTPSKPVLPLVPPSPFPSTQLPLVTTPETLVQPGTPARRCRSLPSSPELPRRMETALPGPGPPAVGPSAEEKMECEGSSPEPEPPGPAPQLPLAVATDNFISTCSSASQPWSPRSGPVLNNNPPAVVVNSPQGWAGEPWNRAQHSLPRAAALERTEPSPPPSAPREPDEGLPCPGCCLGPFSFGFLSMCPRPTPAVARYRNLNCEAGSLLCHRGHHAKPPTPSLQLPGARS
Method: as §1

TLK2 = TLK2 (Homo sapiens, UniProt Q86UE8); settings: competition binding, % of control; read-out: Percent Control (100 uM Levosimendan)
Method: as §1

ULK2 = ULK2 (Homo sapiens, UniProt Q8IYT8); settings: competition binding, % of control; read-out: Percent Control (100 uM Levosimendan)
ULK2, sequence (Q8IYT8 whole entry): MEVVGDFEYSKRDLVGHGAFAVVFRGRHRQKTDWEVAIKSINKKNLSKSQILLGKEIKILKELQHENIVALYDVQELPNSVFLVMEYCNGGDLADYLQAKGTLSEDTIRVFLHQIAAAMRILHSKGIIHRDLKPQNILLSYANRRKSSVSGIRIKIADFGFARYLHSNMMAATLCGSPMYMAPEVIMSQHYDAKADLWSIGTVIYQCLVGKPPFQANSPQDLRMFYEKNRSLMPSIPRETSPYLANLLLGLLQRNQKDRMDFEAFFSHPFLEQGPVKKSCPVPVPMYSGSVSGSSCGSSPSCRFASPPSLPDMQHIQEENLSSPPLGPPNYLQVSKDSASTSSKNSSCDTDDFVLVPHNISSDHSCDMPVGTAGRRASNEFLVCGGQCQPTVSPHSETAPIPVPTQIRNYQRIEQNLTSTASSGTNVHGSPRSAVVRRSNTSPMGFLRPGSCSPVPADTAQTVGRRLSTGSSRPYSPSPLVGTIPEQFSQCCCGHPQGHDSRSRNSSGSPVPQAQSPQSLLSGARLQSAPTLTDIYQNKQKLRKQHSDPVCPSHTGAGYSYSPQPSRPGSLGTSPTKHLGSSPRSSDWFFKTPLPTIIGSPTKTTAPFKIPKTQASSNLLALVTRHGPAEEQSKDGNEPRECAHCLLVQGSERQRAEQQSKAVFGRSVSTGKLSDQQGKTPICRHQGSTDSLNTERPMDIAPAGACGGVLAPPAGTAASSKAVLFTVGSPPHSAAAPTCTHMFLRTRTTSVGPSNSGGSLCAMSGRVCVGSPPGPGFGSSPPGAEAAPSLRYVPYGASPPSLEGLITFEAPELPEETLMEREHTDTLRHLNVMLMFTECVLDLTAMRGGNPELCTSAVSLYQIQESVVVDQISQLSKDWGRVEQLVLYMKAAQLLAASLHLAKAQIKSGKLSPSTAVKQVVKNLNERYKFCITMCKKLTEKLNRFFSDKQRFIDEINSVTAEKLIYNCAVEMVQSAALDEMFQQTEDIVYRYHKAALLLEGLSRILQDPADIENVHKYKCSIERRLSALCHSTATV
Method: as §1

C[C@@H]1CC(=O)NN=C1c1ccc(NN=C(C#N)C#N)cc1 [levosimendan]
remaining binding at 100 µM (ADCK4): 100% | remaining binding at 100 µM (AMPK-alpha1): 83% | remaining binding at 100 µM (CDK4-cyclinD1): 84% | remaining binding at 100 µM (CDK5): 100% | remaining binding at 100 µM (DMPK2): 70% | remaining binding at 100 µM [1]: 91% | remaining binding at 100 µM (EGFR(S752-I759del)): 91% | remaining binding at 100 µM (GRK7): 100% | remaining binding at 100 µM (IGF1R): 86% | remaining binding at 10 µM ([2]; read-out: Percent Control (10 uM Levosimendan)): 88% | remaining binding at 100 µM ([2]; read-out: Percent Control (100 uM Levosimendan)): 49% | remaining binding at 100 µM (LIMK2): 87% | remaining binding at 100 µM (NEK1): 100% | remaining binding at 100 µM (NEK7): 100% | remaining binding at 100 µM (PAK6): 70% | remaining binding at 100 µM (PIK3CD): 100% | remaining binding at 100 µM (PKAC-beta): 64% | remaining binding at 100 µM (TESK1): 96% | remaining binding at 100 µM (TLK2): 97% | remaining binding at 100 µM (ULK2): 56%
